Measured values reported in patent publication US20190010380A1, “METHOD FOR CONTROLLING BACTERIA IN FORMATIONS USING MOLYBDATE” (priority 2017, published 2019).
Values joined by “and” are separate entries in the source; they are usually repeats but may differ in a detail not shown here. Equal entries are not always repeated.

How the values were obtained:
[1] = system: SRB; assay: Hydrogen sulfide inhibition in actual produced water from the Eagle Ford shale diluted to 3%, spiked with SRB; format: cell-based, sulfate-reducing bacteria (SRB)
Protocol: (§1) Hydrogen sulfide inhibition was tested in mock-produced water approximating water used in hydraulic fracturing operations and was made to a total dissolved solids concentration of 3% with a mixture of instant ocean and NaCl salts. The water was supplemented with nutrients and sulfate to allow SRB to metabolize and create H2S. The water was spiked with SRB and then treated with the various treatment conditions noted below in Table 3 and sealed. Treatment conditions were: Control: No biocide or nitrate.
(§2) 250 ppm 12.3 Glut/Quat Biocide: a mixture of glutaraldehyde and a quarternary ammonia compound was prepared NRB Program: (480 ppm Ca(NO3)2 with 1 ppm live NRB culture. 20 ppm, 40 ppm, 50 ppm, 60 ppm, 80 ppm, 100 ppm, 120 ppm, 150 ppm, and 200 ppm molybdate concentration-.
(§3) H2S was measured at intervals using H2S detecting Draeger tubes. Dissolved H2S was released into the gas phase with the addition of hydrochloric acid so that H2S could be measured with the Draeger tubes to get a complete reading of all H2S produced during the course of the example.
Samples were prepared in accordance with Example 1, except that actual produced water sourced from the Eagle Ford shale that was diluted to 3% using deionized water was used in the samples.

[2] = system: SRB; assay: Hydrogen sulfide inhibition in mock-produced water spiked with SRB (Draeger tubes); format: cell-based, sulfate-reducing bacteria (SRB); conditions: for Total H2S: mock-produced water
Protocol: as §1, §2, §3

[O]=[Mo](=[O])([O-])[O-] [MoO4, molybdate]
Total H2S ([1]; 20 ppm MoO4): 3188 ppm | Total H2S ([1]; 50 ppm MoO4): 234 ppm | Total H2S ([1]; 80 ppm MoO4): 172 ppm | Total H2S ([1]; 100 ppm MoO4): 107 ppm | Total H2S ([1]; 150 ppm MoO4): 160 ppm | Total H2S ([1]; 200 ppm MoO4): 110 ppm | Comparison with Glut/Quat biocide and NRB treatment ([1]; concentrations of 50 ppm and above): competitive with other proven treatments | Effect on H2S formation ([1]; molybdate alone, even at lower concentrations): caused a strong reduction in H2S formation | Comparison with Glut/Quat biocide and NRB treatment ([2]; mock produced water, concentrations of 150 ppm and above): competitive with other proven treatments | Effect on H2S formation ([2]; mock produced water, molybdate alone, even at lower concentrations): caused a reduction in H2S formation | Total H2S ([2]; 20 ppm MoO4): 1974 ppm | Total H2S ([2]; 40 ppm MoO4): 1066 ppm | Total H2S ([2]; 50 ppm MoO4): 2262 ppm and 1536 ppm | Total H2S ([2]; 60 ppm MoO4): 1846 ppm | Total H2S ([2]; 80 ppm MoO4): 1866 ppm | Total H2S ([2]; 100 ppm MoO4): 738 ppm | Total H2S ([2]; 120 ppm MoO4): 890 ppm | Total H2S ([2]; 150 ppm MoO4): 176 ppm | Total H2S ([2]; 200 ppm MoO4): 40 ppm
